Converted amounts (≈) assume the structure as drawn. Where two headings read alike, the source gives them in different places.
Legend:
[1] = Kinetic solubility in PBS at 7.4; format: physicochemical; details: PBS buffer, aqueous buffer, kinetic from dmso stock, pH 7.4, 500 μM final concentration, 1.5 hours at room temperature, average of three runs, read-out: Ksol
Procedure: 190 μL of buffer solution (PBS, pH 7.4) was added to wells on a 96-well Millipore Solubility filter plate. Then 10 μL of test compound in DMSO (10 mM) were added to give final concentration of 500 μM.
The filter plate was shaken for 1.5 hours at room temperature in the dark and samples were filtered via a vacuum system into a fresh 96-well plate. Samples were diluted to 500 μM (highest concentration) in DMSO and further diluted (1:10) to provide three-point calibration curve. Absorbance was measured using HPLC/UV analysis at 220 nm, 254 nm, and 280 nm.

[2] = tested on: histone H2B-HaloTag fusion; test: Halo-protein specificity (Specificity Factor), single-molecule imaging in U2OS cells; format: cell-based; details: ratio of slope (spots vs dye concentration, 1-200 nM, 45 minutes) relative to PA-JF549
Procedure: The following day the cells were incubated with PA-JF549 or Examples 1-4 at a range of concentrations between 200 nM and 1 nM for 45 minutes. […] Samples were imaged on a Nikon Ti2 microscope with fiber-optic coupled illumination source. […] Images were collected every 10 msec for 5 seconds per field of view and pulses of ascending intensity 405 nm light (between 0 and 12 mW at the coverslip) were used to photoactivate dye molecules.
For each dye compound, a linear regression was used to determine the relationship between the concentration of dye compound and the number of fluorescence spots detected on the microscope, where in WT cells the ideal dye would have no correlation between compound concentration and number of slots measured. The Specificity Factor was calculated as the ratio of the slope of the compound in question relative to the slope calculated for PA-JF549 and is shown in Table 3 below.

[3] = target: T1, Estrogen Receptor-HaloTag (ER-Halo) fusion (Rhodococcus rhodochrous, UniProt P0A3G2, A155T/A167V/A172T/A224E/C128F/C176G/D78G/E160K/E257K/H272N/K175M/K195N/L47V/L88M/N227D/P291S/S58T/T264A/Y273L/Y87F); format: cell-based; details: tracks in WT U2OS cells, ratio with PA-JF549 in the numerator, 100 nM, 1 hr
T1 construct: expressed in transfected cells; host or cells: U2OS
T1 sequence (P03372 whole entry, the tested form may be a part): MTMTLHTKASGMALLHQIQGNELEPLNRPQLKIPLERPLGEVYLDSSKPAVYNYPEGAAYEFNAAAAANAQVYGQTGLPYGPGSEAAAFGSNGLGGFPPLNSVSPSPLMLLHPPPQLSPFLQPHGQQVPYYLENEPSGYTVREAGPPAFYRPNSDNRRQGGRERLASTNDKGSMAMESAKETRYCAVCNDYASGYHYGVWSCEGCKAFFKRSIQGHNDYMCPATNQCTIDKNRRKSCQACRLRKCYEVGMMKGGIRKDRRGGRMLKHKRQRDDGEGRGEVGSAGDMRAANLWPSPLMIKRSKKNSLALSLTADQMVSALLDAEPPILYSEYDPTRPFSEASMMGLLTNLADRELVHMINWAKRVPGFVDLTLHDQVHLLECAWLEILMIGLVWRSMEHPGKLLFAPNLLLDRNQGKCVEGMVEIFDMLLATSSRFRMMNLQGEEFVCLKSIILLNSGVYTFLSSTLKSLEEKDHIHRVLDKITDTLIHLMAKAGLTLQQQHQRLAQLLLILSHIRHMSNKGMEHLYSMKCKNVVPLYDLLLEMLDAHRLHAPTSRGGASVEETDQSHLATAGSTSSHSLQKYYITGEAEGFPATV
T1 sequence (P0A3G2 other isoform, or with tags, fused parts or gaps with the stated changes): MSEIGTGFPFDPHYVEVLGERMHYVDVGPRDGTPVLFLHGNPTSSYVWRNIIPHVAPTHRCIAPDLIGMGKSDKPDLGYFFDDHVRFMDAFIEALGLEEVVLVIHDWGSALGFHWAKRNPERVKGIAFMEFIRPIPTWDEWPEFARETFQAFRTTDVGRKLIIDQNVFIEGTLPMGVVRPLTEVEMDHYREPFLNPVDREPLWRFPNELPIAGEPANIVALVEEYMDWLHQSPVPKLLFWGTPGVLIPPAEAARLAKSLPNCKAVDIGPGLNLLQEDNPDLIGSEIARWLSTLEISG
Procedure: Using the methods described in Tables 4a and 4b above, labelling specificity of the compound of Examples 1-24 was measured and compared to PA-JF549. U2OS cells wild type or expressing ER-HaloTag fusion were incubated with PA-JF549 or Examples 1-24 for 1 hr. […] Labeling specificity, as measured by the fold reduction in nonspecific labeling of WT cells, was calculated by number of tracks measured in WT cells for Examples 1-24 compared to the number of tracks in WT cells for PA-JF549, expressed as the ratio with PA-JF549 in the numerator.

SMILES	solubility kinetic at 1.5 h [1]	Specificity Factor [2]	Fold reduction in nonspecific labeling ([3]; Table 4a)	Fold reduction in nonspecific labeling ([3]; Table 4b)
COC(=O)C1CN(c2ccc3c(c2)Oc2cc(N4CC(C(=O)OC)C4)ccc2C32C(=[N+]=[N-])C(=O)c3ccc(C(=O)NCCOCCOCCCCCCCl)cc32)C1 [Example 1, dimethyl 1,1′-(6-((2-(2-((6-chlorohexyl)oxy)ethoxy)ethyl)carbamoyl)-2-diazo-3-oxo-2,3-dihydrospiro[indene-1,9′-xanthene]-3′,6′-diyl)bis(azetidine-3-carboxylate)]	58.4 µM (≈ 46.7 µg/mL)	2.66	>10	>10
[N-]=[N+]=C1C(=O)c2ccc(C(=O)NCCOCCOCCCCCCCl)cc2C12c1ccc(N3CC(C(=O)O)C3)cc1Oc1cc(N3CC(C(=O)O)C3)ccc12 [Example 2, 1,1′-(6-((2-(2-((6-chlorohexyl)oxy)ethoxy)ethyl)carbamoyl)-2-diazo-3-oxo-2,3-dihydrospiro[indene-1,9′-xanthene]-3′,6′-diyl)bis(azetidine-3-carboxylic acid)]	481 µM (≈ 371 µg/mL)	<1	>10	>10
COC[C@H]1CCN1c1ccc2c(c1)Oc1cc(N3CC[C@@H]3COC)ccc1C21C(=[N+]=[N-])C(=O)c2ccc(C(=O)NCCOCCOCCCCCCCl)cc21 [Example 3, N-(2-(2-((6-chlorohexyl)oxy)ethoxy)ethyl)-2-diazo-3′,6′-bis((R)-2-(methoxymethyl)azetidin-1-yl)-3-oxo-2,3-dihydrospiro[indene-1,9′-xanthene]-6-carboxamide]	39.5 µM (≈ 30.5 µg/mL)	2.07	1-5	1-5
CN(C)C(=O)C1CN(c2ccc3c(c2)Oc2cc(N4CC(C(=O)N(C)C)C4)ccc2C32C(=[N+]=[N-])C(=O)c3ccc(C(=O)NCCOCCOCCCCCCCl)cc32)C1 [Example 4, 1,1′-(6-((2-(2-((6-chlorohexyl)oxy)ethoxy)ethyl)carbamoyl)-2-diazo-3-oxo-2,3-dihydrospiro[indene-1,9′-xanthene]-3′,6′-diyl)bis(N,N-dimethylazetidine-3-carboxamide)]	3.69 µM (≈ 3.05 µg/mL)	23.8	>10	>10
